# In US20260234161A1, “RIFABUTIN ANALOGS FOR THE TREATMENT OF BACTERIAL DISEASES” (BIOVERSYS AG, priority 2023, published 2026):
# Where two headings read alike, the source gives them in different places.
# Legend:
# Type in all cases: cell-based
# [1] = tested on: S. aureus (UAMS-1625 strain); assay: MIC by broth microdilution, S. aureus; settings: Staphylococcus aureus, 20 h, read-out: MIC S. aureus
# Method: (§1) MIC values were determined by broth microdilution method according to the CLSI guidelines with the following exceptions: MIC against A. baumannii was performed in RPMI medium supplemented with 10% FCS and MIC against M. abscessus was performed in Middlebrook 7H9 broth supplemented with Middlebrook ADC growth supplement (10%; see column “M. abscessus 7H9”). MIC forM abscessus was determined a second time in standard cation adjusted Mueller Hinton broth without growth supplement (see colum “M. abscessus MH”). All other MIC were performed in standard cation adjusted Mueller Hinton broth, supplemented with Middlebrook ADC growth supplement (5%) for the slow growing mycobacteria (M. xenopi, M. kansasii and M. avium).
# (§2) The following procedure applies to all species tested, except forM xenopi. From a fresh culture plate (from overnight to several days depending on the bacteria), cells were resuspended in 0.9% (w/v) saline solution and bacterial inoculum was prepared in the respective testing medium with 5×10^5 CFU/mL. For M. xenopi, the inoculum was prepared from a fresh liquid culture (7H9+ADC). The appropriate volumes of a 10 mg/mL compound solution were directly dispensed in the 96-well assay plate using a digital dispenser to create two-fold dilution series from 32 to 0.002 μg/mL final concentration for A. baumannii and S. aureus; from 16 to 0.016 μg/mL for M. abscessus and M. avium; and from 1 to 6×10^−5 μg/mL for M. kansasii and M. xenopi. 100 μL of bacterial suspension was finally added to the compounds. Plates were covered and incubated without shaking at 35° C. for 20 hours for A. baumanii and S. aureus; at 30° C. for 4 days for M. abscessus; and at 37° C. for 7 days (at least) for M. kansasii (covered with aluminum foil to avoid light exposure), M. avium and M. xenopi. Every experiment contained an antibiotic as quality control. MIC was determined visually as the lowest concentration of a compound that prevents visible growth of the bacteria.
# (§3) The in vitro activity of compounds described herein was determined against S. aureus (UAMS-1625 strain), A. baumannii (HUMC1 strain), M. abscessus (ATCC 19977), M. kansasii (ATCC 12478), M. avium (ATCC 25291), and M. xenopi (ATCC 19250).
# [2] = tested on: M. abscessus (ATCC 19977); assay: MIC by broth microdilution, M. abscessus in Middlebrook 7H9 broth + ADC; settings: Mycobacteroides abscessus, ATCC19977, 96 h; ATCC 19977; Middlebrook 7H9 broth + ADC growth supplement (10%); 30° C., 4 days; read-out: MIC M. abscessus 7H9
# Method: as §1, §2, §3
# [3] = tested on: A. baumannii (HUMC1 strain); assay: MIC by broth microdilution, A. baumannii (RPMI + 10% FCS); settings: Acinetobacter baumannii, read-out: MIC A. baumannii
# Method: as §1, §2, §3
# [4] = tested on: M. abscessus (ATCC 19977); assay: MIC by broth microdilution, M. abscessus in cation adjusted Mueller Hinton broth; settings: Mycobacteroides abscessus, ATCC19977, 96 h, read-out: MIC M. abscessus MH
# Method: as §1, §2, §3
# [5] = HUMC1 strain, RPMI medium + 10% FCS, 35° C., 20 hours
# [6] = ATCC 19977, cation adjusted Mueller Hinton broth without growth supplement, 30° C., 4 days
SMILES,MIC [1] [µg/mL],MIC [2] [µg/mL],"MIC [3, 5] [µg/mL]","MIC [4, 6] [µg/mL]",MIC ([3]; 20 h) [µg/mL],MIC [4] [µg/mL]
CO[C@H]1/C=C/O[C@@]2(C)Oc3c(C)c(O)c4c(c3C2=O)C2=NC3(CCN(CC(C)C)CC3)NC2=C(NC(=O)/C(C)=C\C=C\[C@H](C)[C@H](O)[C@@H](C)[C@@H](O)[C@@H](C)[C@H](OC(=O)N2CCC(N(C)C)CC2)[C@@H]1C)C4=O [Compound 3],0.03,0.5,≤ 0.002,4,–,–
CO[C@H]1/C=C/O[C@@]2(C)Oc3c(C)c(O)c4c(c3C2=O)C2=NC3(CCN(CC(C)C)CC3)NC2=C(NC(=O)/C(C)=C\C=C\[C@H](C)[C@H](O)[C@@H](C)[C@@H](O)[C@@H](C)[C@H](OC(=O)N2CCC(Nc3cccnc3)CC2)[C@@H]1C)C4=O [Compound 5],0.125,1,0.004,4,–,–
CCCN1CCN(C(=O)O[C@H]2[C@H](C)[C@H](O)[C@H](C)[C@@H](O)[C@@H](C)/C=C/C=C(/C)C(=O)NC3=C4NC5(CCN(CC(C)C)CC5)N=C4c4c(c(O)c(C)c5c4C(=O)[C@@](C)(O/C=C/[C@H](OC)[C@H]2C)O5)C3=O)CC12CC2 [Compound 59],0.25,–,0.03,0.125,–,–
CO[C@H]1/C=C/O[C@@]2(C)Oc3c(C)c(O)c4c(c3C2=O)C2=NC3(CCN(CC(C)C)CC3)NC2=C(NC(=O)/C(C)=C\C=C\[C@H](C)[C@H](O)[C@@H](C)[C@@H](O)[C@@H](C)[C@H](OC(=O)N2CCCN(C3CCCC3)CC2)[C@@H]1C)C4=O [Compound 60],0.06,–,≤ 0.016,0.25,–,–
CO[C@H]1/C=C/O[C@@]2(C)Oc3c(C)c(O)c4c(c3C2=O)C2=NC3(CCN(CC(C)C)CC3)NC2=C(NC(=O)/C(C)=C\C=C\[C@H](C)[C@H](O)[C@@H](C)[C@@H](O)[C@@H](C)[C@H](OC(=O)N2CCC(n3ccnc3)CC2)[C@@H]1C)C4=O [Compound 61],0.03,–,≤ 0.016,4,–,–
CO[C@H]1/C=C/O[C@@]2(C)Oc3c(C)c(O)c4c(c3C2=O)C2=NC3(CCN(CC(C)C)CC3)NC2=C(NC(=O)/C(C)=C\C=C\[C@H](C)[C@H](O)[C@@H](C)[C@@H](O)[C@@H](C)[C@H](OC(=O)N2CCC(N3CCCC3)CC2)[C@@H]1C)C4=O [Compound 62],0.06,–,≤ 0.016,1,–,–
CO[C@H]1/C=C/O[C@@]2(C)Oc3c(C)c(O)c4c(c3C2=O)C2=NC3(CCN(CC(C)C)CC3)NC2=C(NC(=O)/C(C)=C\C=C\[C@H](C)[C@H](O)[C@@H](C)[C@@H](O)[C@@H](C)[C@H](OC(=O)N2CCC3CCCCC3C2)[C@@H]1C)C4=O (some centres unmarked) [Compound 64],1,–,0.5,4,–,–
CO[C@H]1/C=C/O[C@@]2(C)Oc3c(C)c(O)c4c(c3C2=O)C2=NC3(CCN(CC(C)C)CC3)NC2=C(NC(=O)/C(C)=C\C=C\[C@H](C)[C@H](O)[C@@H](C)[C@@H](O)[C@@H](C)[C@H](OC(=O)N2CCCC3(CN(CC5CCCCC5)C3)C2)[C@@H]1C)C4=O [Compound 65],0.5,–,0.004,0.125,–,–
CO[C@H]1/C=C/O[C@@]2(C)Oc3c(C)c(O)c4c(c3C2=O)C2=NC3(CCN(CC(C)C)CC3)NC2=C(NC(=O)/C(C)=C\C=C\[C@H](C)[C@H](O)[C@@H](C)[C@@H](O)[C@@H](C)[C@H](OC(=O)N2CC3(CCN(CC5CCCCC5)CC3)C2)[C@@H]1C)C4=O [Compound 66],0.125,–,0.004,0.125,–,–
CCN1CCC2(CC1)CCN(C(=O)O[C@H]1[C@H](C)[C@H](O)[C@H](C)[C@@H](O)[C@@H](C)/C=C/C=C(/C)C(=O)NC3=C4NC5(CCN(CC(C)C)CC5)N=C4c4c(c(O)c(C)c5c4C(=O)[C@@](C)(O/C=C/[C@H](OC)[C@H]1C)O5)C3=O)CC2 [Compound 68],0.06,–,0.003,1,–,–
CO[C@H]1/C=C/O[C@@]2(C)Oc3c(C)c(O)c4c(c3C2=O)C2=NC3(CCN(CC(C)C)CC3)NC2=C(NC(=O)/C(C)=C\C=C\[C@H](C)[C@H](O)[C@@H](C)[C@@H](O)[C@@H](C)[C@H](OC(=O)N2CCC3(CC2)CCN(C(C)C)CC3)[C@@H]1C)C4=O [Compound 69],0.125,–,0.002,1,–,–
CO[C@H]1/C=C/O[C@@]2(C)Oc3c(C)c(O)c4c(c3C2=O)C2=NC3(CCN(CC(C)C)CC3)NC2=C(NC(=O)/C(C)=C\C=C\[C@H](C)[C@H](O)[C@@H](C)[C@@H](O)[C@@H](C)[C@H](OC(=O)N2CCC3(CCN(CC(C)C)CC3)CC2)[C@@H]1C)C4=O [Compound 70],0.125,–,0.004,0.25,–,–
CO[C@H]1/C=C/O[C@@]2(C)Oc3c(C)c(O)c4c(c3C2=O)C2=NC3(CCN(CC(C)C)CC3)NC2=C(NC(=O)/C(C)=C\C=C\[C@H](C)[C@H](O)[C@@H](C)[C@@H](O)[C@@H](C)[C@H](OC(=O)N2CCC3(CCN(CCC(C)C)CC3)CC2)[C@@H]1C)C4=O [Compound 71],0.25,–,0.008,0.25,–,–
CO[C@H]1/C=C/O[C@@]2(C)Oc3c(C)c(O)c4c(c3C2=O)C2=NC3(CCN(CC(C)C)CC3)NC2=C(NC(=O)/C(C)=C\C=C\[C@H](C)[C@H](O)[C@@H](C)[C@@H](O)[C@@H](C)[C@H](OC(=O)NC2CCN(C)CC2)[C@@H]1C)C4=O [Compound 73],0.03,–,–,–,0.001,1
CCN1CCC(NC(=O)O[C@H]2[C@H](C)[C@H](O)[C@H](C)[C@@H](O)[C@@H](C)/C=C/C=C(/C)C(=O)NC3=C4NC5(CCN(CC(C)C)CC5)N=C4c4c(c(O)c(C)c5c4C(=O)[C@@](C)(O/C=C/[C@H](OC)[C@H]2C)O5)C3=O)CC1 [Compound 74],0.03,–,≤ 0.001,2,–,–
CCCN1CCC(NC(=O)O[C@H]2[C@H](C)[C@H](O)[C@H](C)[C@@H](O)[C@@H](C)/C=C/C=C(/C)C(=O)NC3=C4NC5(CCN(CC(C)C)CC5)N=C4c4c(c(O)c(C)c5c4C(=O)[C@@](C)(O/C=C/[C@H](OC)[C@H]2C)O5)C3=O)CC1 [Compound 75],0.06,–,0.001,1,–,–
CO[C@H]1/C=C/O[C@@]2(C)Oc3c(C)c(O)c4c(c3C2=O)C2=NC3(CCN(CC(C)C)CC3)NC2=C(NC(=O)/C(C)=C\C=C\[C@H](C)[C@H](O)[C@@H](C)[C@@H](O)[C@@H](C)[C@H](OC(=O)NC2CCN(C(C)C)CC2)[C@@H]1C)C4=O [Compound 76],0.03,–,≤ 0.001,2,–,–
CO[C@H]1/C=C/O[C@@]2(C)Oc3c(C)c(O)c4c(c3C2=O)C2=NC3(CCN(CC(C)C)CC3)NC2=C(NC(=O)/C(C)=C\C=C\[C@H](C)[C@H](O)[C@@H](C)[C@@H](O)[C@@H](C)[C@H](OC(=O)NC2CCN(C3CCOCC3)CC2)[C@@H]1C)C4=O [Compound 78],0.06,–,–,–,≤ 0.001,2
CO[C@H]1/C=C/O[C@@]2(C)Oc3c(C)c(O)c4c(c3C2=O)C2=NC3(CCN(CC(C)C)CC3)NC2=C(NC(=O)/C(C)=C\C=C\[C@H](C)[C@H](O)[C@@H](C)[C@@H](O)[C@@H](C)[C@H](OC(=O)N(C)C2CC2)[C@@H]1C)C4=O [Compound 82],0.06,–,0.008,4,–,–
CO[C@H]1/C=C/O[C@@]2(C)Oc3c(C)c(O)c4c(c3C2=O)C2=NC3(CCN(CC(C)C)CC3)NC2=C(NC(=O)/C(C)=C\C=C\[C@H](C)[C@H](O)[C@@H](C)[C@@H](O)[C@@H](C)[C@H](OC(=O)N(C)C(C)C)[C@@H]1C)C4=O [Compound 83],0.125,–,0.016,2,–,–
